Where two headings read alike, the source gives them in different places.
How the values were obtained:
[1] = test system: rabbit skeletal muscle myosin; assay: Inhibition of hydrolysis of ATP by rabbit skeletal muscle myosin; assay type: biochemical
Outline: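 Actin-activated ATPase: F-actin plus rabbit skeletal myosin II with compound in Tris-HCl pH 7.5/KCl/EGTA/MgCl2, started with ATP (3 mM working stock) and run 60 min at 37 °C. Released Pi measured by CytoPhos absorbance at 650 nm against a phosphate standard curve; IC50 fitted from inhibition relative to uninhibited myosin.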

CYP1A2 = target: T1, CYP1A2 (Homo sapiens, UniProt P05177); assay: CYP450 enzyme inhibition, human liver microsomes, CYP1A2; assay type: in vitro ADME
T1 construct: incubated with human liver microsomes and test compounds of different concentrations; from tissue; host or cells: human liver microsomes
T1 sequence (P05177 1-516): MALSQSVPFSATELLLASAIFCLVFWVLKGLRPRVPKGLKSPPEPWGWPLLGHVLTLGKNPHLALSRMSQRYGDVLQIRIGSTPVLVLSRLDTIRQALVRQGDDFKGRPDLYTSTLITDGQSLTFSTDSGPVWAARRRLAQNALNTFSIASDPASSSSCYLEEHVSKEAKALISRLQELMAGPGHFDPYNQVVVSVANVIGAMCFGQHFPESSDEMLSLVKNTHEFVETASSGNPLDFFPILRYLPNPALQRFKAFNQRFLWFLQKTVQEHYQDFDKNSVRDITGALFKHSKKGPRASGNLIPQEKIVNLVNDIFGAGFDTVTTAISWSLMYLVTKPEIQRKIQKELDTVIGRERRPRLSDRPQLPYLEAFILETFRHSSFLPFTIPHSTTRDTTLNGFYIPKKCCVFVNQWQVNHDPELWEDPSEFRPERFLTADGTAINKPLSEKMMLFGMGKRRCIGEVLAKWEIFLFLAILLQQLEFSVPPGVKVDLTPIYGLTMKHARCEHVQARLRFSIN
Description: (§1) The purpose of this study was to evaluate the effect of the test compound on the activity of five isoenzymes (CYP1A2, CYP2C9, CYP2C19, CYP2D6 and CYP3A4) of human liver microsomal cytochrome P450 (CYP) by using an in vitro testing system. The specific probe substrates of CYP450 isoenzymes were incubated with human liver microsomes and test compounds of different concentrations, and reduced nicotinamide adenine dinucleotide phosphate (NADPH) was added to initiate the reaction. After the completion of the reaction, the sample was treated and liquid chromatography-tandem mass spectrometry (LC-MS/MS) was used to quantitatively detect metabolites produced by specific substrates, changes in CYP enzyme activity were determined, and IC50 value was calculated to evaluate the inhibitory potential of the test compound on each CYP enzyme subtype.

CYP2C9 = target: T2, CYP2C9 (Homo sapiens, UniProt P11712); assay: CYP450 enzyme inhibition, human liver microsomes, CYP2C9; assay type: in vitro ADME
T2 construct: incubated with human liver microsomes and test compounds of different concentrations; from tissue; host or cells: human liver microsomes
T2 sequence (P11712 whole entry): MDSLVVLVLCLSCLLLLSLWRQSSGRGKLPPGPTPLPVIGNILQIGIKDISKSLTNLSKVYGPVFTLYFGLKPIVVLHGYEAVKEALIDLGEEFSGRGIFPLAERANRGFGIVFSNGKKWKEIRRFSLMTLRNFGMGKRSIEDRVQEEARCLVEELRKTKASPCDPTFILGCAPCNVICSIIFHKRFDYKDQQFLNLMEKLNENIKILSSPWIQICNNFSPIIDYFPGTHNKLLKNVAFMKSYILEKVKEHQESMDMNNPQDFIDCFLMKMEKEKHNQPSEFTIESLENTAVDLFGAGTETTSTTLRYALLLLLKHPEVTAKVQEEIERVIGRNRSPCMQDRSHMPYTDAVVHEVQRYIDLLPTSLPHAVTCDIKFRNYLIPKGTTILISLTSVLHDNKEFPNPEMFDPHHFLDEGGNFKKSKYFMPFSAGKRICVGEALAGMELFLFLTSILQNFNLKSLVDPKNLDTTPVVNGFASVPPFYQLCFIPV
Description: as §1

CYP2C19 = target: T3, CYP2C19 (Homo sapiens, UniProt P33261); assay: CYP450 enzyme inhibition, human liver microsomes, CYP2C19; assay type: in vitro ADME
T3 construct: incubated with human liver microsomes and test compounds of different concentrations; from tissue; host or cells: human liver microsomes
T3 sequence (P33261 whole entry): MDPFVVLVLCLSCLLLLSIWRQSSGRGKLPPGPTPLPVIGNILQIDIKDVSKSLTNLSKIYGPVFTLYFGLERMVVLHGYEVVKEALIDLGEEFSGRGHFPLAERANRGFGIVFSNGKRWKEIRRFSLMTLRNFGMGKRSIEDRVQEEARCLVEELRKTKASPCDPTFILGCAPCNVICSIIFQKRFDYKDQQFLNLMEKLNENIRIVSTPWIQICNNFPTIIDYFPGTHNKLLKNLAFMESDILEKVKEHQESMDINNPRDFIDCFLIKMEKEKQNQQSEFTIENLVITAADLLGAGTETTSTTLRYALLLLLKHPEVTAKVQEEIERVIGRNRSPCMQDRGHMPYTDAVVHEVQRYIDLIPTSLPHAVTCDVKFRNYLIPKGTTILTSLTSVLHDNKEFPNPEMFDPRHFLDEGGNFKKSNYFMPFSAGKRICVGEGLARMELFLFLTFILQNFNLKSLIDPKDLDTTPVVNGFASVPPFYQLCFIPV
Description: as §1

CYP2D6 = target: T4, CYP2D6 (Homo sapiens, UniProt P10635); assay: CYP450 enzyme inhibition, human liver microsomes, CYP2D6; assay type: in vitro ADME
T4 construct: incubated with human liver microsomes and test compounds of different concentrations; from tissue; host or cells: human liver microsomes
T4 sequence (P10635 whole entry): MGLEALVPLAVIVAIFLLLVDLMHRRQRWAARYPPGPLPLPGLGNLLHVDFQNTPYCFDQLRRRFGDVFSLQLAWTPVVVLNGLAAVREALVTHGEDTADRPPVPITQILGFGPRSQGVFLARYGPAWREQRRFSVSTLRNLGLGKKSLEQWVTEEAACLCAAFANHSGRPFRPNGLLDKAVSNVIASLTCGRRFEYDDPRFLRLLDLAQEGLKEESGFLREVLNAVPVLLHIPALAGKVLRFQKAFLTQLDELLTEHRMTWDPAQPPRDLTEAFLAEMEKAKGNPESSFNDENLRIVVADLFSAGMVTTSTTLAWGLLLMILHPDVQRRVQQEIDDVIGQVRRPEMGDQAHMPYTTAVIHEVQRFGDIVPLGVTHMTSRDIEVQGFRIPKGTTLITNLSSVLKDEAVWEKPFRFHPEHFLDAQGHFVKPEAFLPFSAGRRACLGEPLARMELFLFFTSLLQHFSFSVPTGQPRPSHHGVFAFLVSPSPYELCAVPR
Description: as §1

CYP3A4 = target: T5, CYP3A4 (Homo sapiens, UniProt P08684); assay: CYP450 enzyme inhibition, human liver microsomes, CYP3A4; assay type: in vitro ADME
T5 construct: incubated with human liver microsomes and test compounds of different concentrations; from tissue; host or cells: human liver microsomes
T5 sequence (P08684 whole entry): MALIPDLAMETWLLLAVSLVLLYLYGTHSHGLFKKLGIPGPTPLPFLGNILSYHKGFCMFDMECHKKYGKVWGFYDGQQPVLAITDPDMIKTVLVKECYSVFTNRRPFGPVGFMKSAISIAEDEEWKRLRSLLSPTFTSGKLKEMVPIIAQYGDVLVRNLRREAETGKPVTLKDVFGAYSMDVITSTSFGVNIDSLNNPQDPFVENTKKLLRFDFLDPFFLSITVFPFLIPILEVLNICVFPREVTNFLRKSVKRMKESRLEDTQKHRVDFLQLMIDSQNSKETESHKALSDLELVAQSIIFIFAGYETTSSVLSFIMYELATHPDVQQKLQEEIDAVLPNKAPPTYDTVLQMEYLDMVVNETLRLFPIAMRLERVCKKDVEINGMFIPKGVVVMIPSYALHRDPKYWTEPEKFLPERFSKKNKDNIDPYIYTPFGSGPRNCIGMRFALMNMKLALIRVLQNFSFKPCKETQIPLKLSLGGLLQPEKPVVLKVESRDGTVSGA
Description: as §1

smooth muscle myosin S1 = target: T6, smooth muscle myosin S1 (Gallus gallus, UniProt P10587); assay: Inhibition of hydrolysis of ATP by smooth muscle myosin S1 fragments; assay type: biochemical; conditions: 100 μM compound
T6 construct: purchased Cytoskeleton #CS-MYS05
T6 sequence (P10587 84-789 limits assumed): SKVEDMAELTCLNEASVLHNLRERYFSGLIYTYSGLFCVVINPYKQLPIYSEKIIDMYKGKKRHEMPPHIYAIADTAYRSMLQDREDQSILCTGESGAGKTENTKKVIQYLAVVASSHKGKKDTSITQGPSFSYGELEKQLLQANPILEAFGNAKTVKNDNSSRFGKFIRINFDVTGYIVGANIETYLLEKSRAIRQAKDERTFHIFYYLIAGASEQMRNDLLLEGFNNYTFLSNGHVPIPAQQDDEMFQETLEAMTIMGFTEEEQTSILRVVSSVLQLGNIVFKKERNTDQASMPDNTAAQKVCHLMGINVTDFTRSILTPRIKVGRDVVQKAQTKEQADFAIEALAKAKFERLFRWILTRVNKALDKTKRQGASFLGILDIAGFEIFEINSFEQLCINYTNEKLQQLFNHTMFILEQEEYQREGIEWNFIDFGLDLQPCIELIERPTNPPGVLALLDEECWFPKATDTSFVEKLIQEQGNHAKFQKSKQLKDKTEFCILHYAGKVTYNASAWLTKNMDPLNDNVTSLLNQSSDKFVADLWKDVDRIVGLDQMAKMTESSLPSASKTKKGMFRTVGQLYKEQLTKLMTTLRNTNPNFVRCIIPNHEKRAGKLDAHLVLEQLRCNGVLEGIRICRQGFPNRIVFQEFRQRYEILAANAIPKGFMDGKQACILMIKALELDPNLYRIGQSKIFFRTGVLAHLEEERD
T6 sequence (P02607 whole entry partner, the tested form may be a part): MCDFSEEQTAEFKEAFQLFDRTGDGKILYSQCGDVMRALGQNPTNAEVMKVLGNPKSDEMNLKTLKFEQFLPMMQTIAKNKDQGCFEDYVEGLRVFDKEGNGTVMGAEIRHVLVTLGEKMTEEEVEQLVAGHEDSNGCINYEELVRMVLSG
Outline: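 Smooth muscle myosin S1 fragment (0.7 mg/mL in PM12 buffer with 1 mM DTT) was mixed with compound and F-actin polymer prepared from cardiac actin, then 5 mM ATP working solution started the reaction at 37° C. for 20 min. Released Pi was measured with CytoPhos reagent at 650 nm against a standard curve, and inhibition was calculated relative to positive control wells.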

cardiac myosin SII = target: T7, cardiac myosin SII (Bos taurus, UniProt Q9BE39); assay: Inhibition of hydrolysis of ATP by cardiac myosin SII; assay type: biochemical; conditions: 100 μM compound
T7 construct: purchased Cytoskeleton #MYO3-A
Outline: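 Bovine cardiac myosin with preformed F-actin in 15 mM Tris-HCl pH 7.5, 10 mM KCl, 2 mM MgCl2, 0.1 mM EGTA; compounds at 100 μM final, ATP from 3 mM working solution, 2 h at 37 °C. Released Pi measured colorimetrically at 650 nm against a Pi standard curve; % inhibition vs. DMSO control.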

[2] = Pharmacokinetic experiment in mice; assay type: in vivo; conditions: male, C57, po; mouse plasma, i.g. (10 mg/kg)
Description: (§2) 1. Experimental animals: Male C57 mice, 22-25 g, 6 mice/compound. Purchased from Chengdu Ddossy Experimental Animals Co., Ltd.
2. Experimental design: On the day of the experiment, 12 C57 mice were randomly grouped according to their body weight. The animals were fasted with water available for 12 to 14 h one day before the administration and were fed 4 h after the administration.
Before and after the administration, 0.06 mL of blood was taken from the orbit of the animals under isoflurane anesthesia and placed in an EDTAK2 centrifuge tube. The blood was centrifuged at 5000 rpm and 4° C. for 10 min to collect the plasma. The blood collection time points for the intravenous group and intragastric administration group were: 0 m, 5 m, 15 min, 30 min, 1 h, 2 h, 4 h, 7 h and 24 h. Before analysis and detection, all samples were stored at −80° C., and a quantitative analysis of samples was performed using LC-MS/MS.

[3] = Pharmacokinetic experiment in mouse muscle tissue (tibialis anterior / plasma); assay type: in vivo, C57 mice; conditions: male, C57, tibialis anterior muscle / plasma, oral, intragastric 10 mg/kg, read-out: Ratio = Tibialis anterior Conc./Plasma Conc.
Description: as §2
2. Experimental design: On the day of the experiment, C57 mice were randomly grouped according to their body weight. The animals were fasted with water available for 12 to 14 h one day before the administration and were fed 4 h after the administration. Administration was performed as per Table 10.1.

[4] = inhibition of hydrolysis of ATP, class symbols, read-out: Rabbit skeletal muscle myosin (IC50)
[5] = read-out: IC50 for inhibition of hydrolysis of ATP by rabbit skeletal muscle myosin

| SMILES | IC50 [1, 4] | IC50 [1, 5] | IC50 (CYP1A2) | IC50 (CYP2C9) | IC50 (CYP2C19) | IC50 (CYP2D6) | IC50 (CYP3A4) | inhibition at 100 µM (smooth muscle myosin S1) | inhibition at 100 µM (cardiac myosin SII) | AUC(0-t) [2] | Cmax [2] | half-life [2] | Kp at 6 h [3] | Kp at 24 h [3] |
| --- | --- | --- | --- | --- | --- | --- | --- | --- | --- | --- | --- | --- | --- | --- |
| Cc1cc(Cn2nc(-c3cnc(OCC(F)(F)F)nc3)ccc2=O)cc2c1CCC2=O [Compound 169] | < 2.5 µM | 0.8 µM | > 30 µM | > 30 µM | > 30 µM | > 30 µM | > 30 µM |  |  |  |  |  |  |  |
| O=C1CCc2c1cc(Cn1nc(-c3cnc(OCC(F)(F)F)nc3)ccc1=O)cc2C(F)F [Compound 176] | < 2.5 µM |  | > 30 µM | > 30 µM | > 30 µM | > 30 µM | > 30 µM |  |  |  |  |  |  |  |
| O=C1Cc2cc(Cn3nc(-c4cnc(OCC(F)(F)F)nc4)ccc3=O)ccc21 [Compound 72] | < 2.5 µM | 0.56 µM | > 30 µM | > 30 µM | > 30 µM | > 30 µM | > 30 µM | 23.6% |  |  |  |  |  |  |
| O=c1ccc(-c2cnc(O[C@H]3CCOC3)nc2)nn1Cc1ccc2c(c1)CC2 [Compound 106] | < 2.5 µM | 0.2 µM | > 30 µM | > 30 µM | > 30 µM | > 30 µM | > 30 µM |  |  |  |  |  |  |  |
| Cn1cc(Oc2ncc(-c3ccc(=O)n(Cc4ccc5c(c4)CCC5)n3)cn2)cn1 [Compound 128] | 2.5 to 20 µM |  |  |  |  |  |  | -2% | -10% | 8320 ng·h/mL | 1090 ng/mL |  |  |  |
| O=C1CCc2ccc(Cn3nc(-c4cnc(OCC5(F)CC5)nc4)ccc3=O)cc21 [Compound 135] | < 2.5 µM | 0.3 µM |  |  |  |  |  | 8% |  |  |  | 66.8 h | 133 | 165 |
| O=C1CCc2c(F)cc(Cn3nc(-c4cnc(O[C@@H]5CCOC5)nc4)ccc3=O)cc21 [Compound 163] | < 2.5 µM |  | > 30 µM | > 30 µM | > 30 µM | > 30 µM | > 30 µM | 14% |  |  |  |  |  |  |
| O=C1CCc2ccc(Cn3nc(-c4cnc(OCC5CC5)nc4)ccc3=O)cc21 [Compound 129] | < 2.5 µM | 0.2 µM |  |  |  |  |  | -2% | 22% |  |  | 41.9 h | 146 | 178 |
| O=c1ccc(-c2cnc(OCC(F)(F)F)nc2)nn1Cc1ccc2c(c1)CC1CC21 (single isomer, unassigned) [Compound 162] | < 2.5 µM | 0.8 µM |  |  |  |  |  | 16% | 13% | 6180 ng·h/mL | 688 ng/mL |  |  |  |
| O=C1CCc2c(F)cc(Cn3nc(-c4cnc(OCC(F)(F)F)nc4)ccc3=O)cc21 [Compound 153] | < 2.5 µM | 0.5 µM | > 30 µM | > 30 µM | > 30 µM | > 30 µM | > 30 µM | -12% |  |  |  |  | 73.3 | 96.7 |
| O=C1CCc2c(Cl)cc(Cn3nc(-c4cnc(O[C@@H]5CCOC5)nc4)ccc3=O)cc21 [Compound 171] | < 2.5 µM | 0.9 µM | > 30 µM | > 30 µM | > 30 µM | > 30 µM | > 30 µM |  |  |  |  |  | 90.1 | 161 |
| O=C1CCc2c(Cl)cc(Cn3nc(-c4cnc(C5CC5)nc4)ccc3=O)cc21 [Compound 170] | < 2.5 µM | 0.9 µM | > 30 µM | > 30 µM | > 30 µM | > 30 µM | > 30 µM |  |  |  |  |  |  |  |
| O=c1ccc(-c2cnc(OCC(F)(F)F)nc2)nn1Cc1ccc2c(c1)C1CC1C2 (single isomer, unassigned) [Compound 160] | < 2.5 µM |  |  |  |  |  |  | 3% | 8% | 8170 ng·h/mL | 1380 ng/mL |  |  |  |
| O=C1CCc2c(Cl)cc(Cn3nc(-c4cnc(O[C@H]5CCOC5)nc4)ccc3=O)cc21 [Compound 172] | < 2.5 µM | 1 µM | > 30 µM | > 30 µM | > 30 µM | > 30 µM | > 30 µM |  |  |  |  |  | 67 | 129 |
